Counter-ions that a name gives are not always drawn.
Columns and labels:
Assay type in all cases: biochemical
JAK1 = molecular target: T1, JAK1 (Homo sapiens, UniProt P23458); test: JAK1 inhibition (Table 4); conditions: read-out: JAK1 Ki
T1 construct: made in house; host or cells: SF9 insect cells (baculovirus)

JAK2 = molecular target: T2, JAK2 (Homo sapiens, UniProt O60674); test: JAK2 inhibition (Table 4); conditions: read-out: JAK2 Ki
T2 construct: made in house; host or cells: SF9 insect cells (baculovirus)

JAK3 = molecular target: T3, JAK3 (Homo sapiens, UniProt P52333); test: JAK3 inhibition (Table 4); conditions: read-out: JAK3 Ki
T3 construct: made in house; host or cells: SF9 insect cells (baculovirus)

TYK2 = molecular target: T4, TYK2 (Homo sapiens, UniProt P29597); test: TYK2 inhibition (Table 4)
T4 construct: made in house; host or cells: SF9 insect cells (baculovirus)
T4 sequence (P29597 873-1187): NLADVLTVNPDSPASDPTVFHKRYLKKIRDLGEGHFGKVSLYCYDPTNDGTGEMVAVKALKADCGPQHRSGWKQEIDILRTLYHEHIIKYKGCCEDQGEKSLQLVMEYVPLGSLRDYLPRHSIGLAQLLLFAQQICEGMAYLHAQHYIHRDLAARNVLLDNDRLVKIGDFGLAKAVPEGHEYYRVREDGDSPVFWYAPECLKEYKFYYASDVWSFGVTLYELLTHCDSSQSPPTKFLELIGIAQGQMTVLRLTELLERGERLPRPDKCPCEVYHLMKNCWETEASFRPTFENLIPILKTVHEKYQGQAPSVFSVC

T2 sequence (O60674 812-1132): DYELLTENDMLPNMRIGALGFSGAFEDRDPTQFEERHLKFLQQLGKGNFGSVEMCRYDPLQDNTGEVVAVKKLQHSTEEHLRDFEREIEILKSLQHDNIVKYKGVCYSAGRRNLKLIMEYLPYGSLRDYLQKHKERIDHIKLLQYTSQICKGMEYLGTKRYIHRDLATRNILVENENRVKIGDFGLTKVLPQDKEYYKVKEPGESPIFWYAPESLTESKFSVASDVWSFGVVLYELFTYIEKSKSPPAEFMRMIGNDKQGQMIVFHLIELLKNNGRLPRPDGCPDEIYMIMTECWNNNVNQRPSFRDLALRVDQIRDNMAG
T3 sequence (P52333 783-1124): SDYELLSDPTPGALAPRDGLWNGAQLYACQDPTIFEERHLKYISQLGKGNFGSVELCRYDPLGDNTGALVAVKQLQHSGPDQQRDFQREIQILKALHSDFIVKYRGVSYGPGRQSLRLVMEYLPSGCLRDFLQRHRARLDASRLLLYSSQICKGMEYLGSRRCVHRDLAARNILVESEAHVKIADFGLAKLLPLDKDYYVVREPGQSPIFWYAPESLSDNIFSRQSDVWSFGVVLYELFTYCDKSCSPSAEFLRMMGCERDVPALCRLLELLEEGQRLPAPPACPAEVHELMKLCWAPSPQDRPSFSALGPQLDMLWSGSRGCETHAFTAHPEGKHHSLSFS
T1 sequence (P23458 852-1154): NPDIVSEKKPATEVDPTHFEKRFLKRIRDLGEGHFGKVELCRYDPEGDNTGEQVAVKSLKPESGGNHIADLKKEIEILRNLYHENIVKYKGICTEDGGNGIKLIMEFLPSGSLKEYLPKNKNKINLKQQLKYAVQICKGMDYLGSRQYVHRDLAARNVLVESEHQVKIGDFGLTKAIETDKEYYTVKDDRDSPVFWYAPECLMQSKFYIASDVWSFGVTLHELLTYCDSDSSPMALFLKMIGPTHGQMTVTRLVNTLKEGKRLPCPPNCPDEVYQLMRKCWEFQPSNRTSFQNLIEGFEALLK

Structure (SMILES)	Ki (JAK1)	Ki (JAK2)	Ki (JAK3)	Ki (TYK2)
Cc1nc2cnc3[nH]ccc3c2n1[C@@H]1CCC[C@@](C)(O)C1 [Example 892, (1R,3R)-1-Methyl-3-(2-methyl-6H-1,3,5,6-tetraaza-as-indacen-1-yl)-cyclohexanol]	0.0821 µM	0.145 µM	0.13 µM	0.114 µM
CCN1CC[C@@H](n2c(CNS(C)(=O)=O)nc3cnc4[nH]ccc4c32)[C@@H](F)C1 [Example 909, N-[1-((3S,4R)-1-Ethyl-3-fluoro-piperidin-4-yl)-1,6-dihydro-1,3,5,6-tetraaza-as-indacen-2-ylmethyl]-methanesulfonamide]	0.00708 µM	0.128 µM	0.213 µM	0.352 µM
OCc1nc2cnc3[nH]ccc3c2n1C1CC2CCC1O2 (single isomer, unassigned) [Example 851, endo-[1-(7-Oxa-bicyclo[2.2.1]hept-2-yl)-1,6-dihydro-1,3,5,6-tetraaza-as-indacen-2-yl]-methanol]	0.0259 µM	0.0533 µM	0.0244 µM	0.0499 µM
C[C@@H](O)c1nc2cnc3[nH]ccc3c2n1N1CCCCC1 [Example 882, (R)-1-(1-Piperidin-1-yl-1,6-dihydro-1,3,5,6-tetraaza-as-indacen-2-yl)-ethanol]	0.00356 µM	0.0516 µM	0.0726 µM	0.0106 µM
Cc1nc2cnc3[nH]ccc3c2n1[C@H]1CC[C@H](N)CC1 [Example 273, 4-(2-Methyl-6H-1,3,5,6-tetraaza-as-indacen-1-yl)-cyclohexylamine]	0.00529 µM	0.0189 µM	0.0192 µM	0.0484 µM
COCCNC(=O)N(C)[C@H]1CC[C@H](n2cnc3cnc4[nH]ccc4c32)CC1 [Example 592, Trans 3-(2-Methoxy-ethyl)-1-methyl-1-[4-(6H-1,2,3,5,6-tetraaza-as-indacen-1-yl)-cyclohexyl]-urea]	0.012 µM	0.0155 µM	0.344 µM	0.215 µM
O=S(=O)(c1ccccc1)N1CC[C@@H](n2cnc3cnc4[nH]ccc4c32)C1 [Example 432, 1-((R)-1-Benzenesulfonyl-pyrrolidin-3-yl)-1,6-dihydro-1,3,5,6-tetraaza-as-indacene]	0.0197 µM	0.0179 µM	1.28 µM	0.0732 µM
Cc1nc2cnc3[nH]ccc3c2n1C1CCS(=O)(=O)CC1 [Example 210, 1-(1,1-Dioxo-hexahydro-1-thiopyran-4-yl)-2-methyl-1,6-dihydro-1,2,3,5,6-tetraaza-as-indacene]	0.147 µM	0.642 µM	0.645 µM	0.514 µM
CCN1CCC(n2nnc3cnc4[nH]ccc4c32)C(F)(F)C1 (racemic) [Example 533, 1-(1-Ethyl-3,3-difluoro-piperidin-4-yl)-1,6-dihydro-1,2,3,5,6-pentaaza-as-indacene]	0.00905 µM	0.0157 µM	0.0488 µM	0.0597 µM
Cc1nc2cnc3[nH]ccc3c2n1[C@H]1CC[C@H](NCC(F)(F)F)CC1 [Example 591, Trans[4-(2-methyl-6H-1,2,3,5,6-tetraaza-as-indacen-1-yl)-cyclohexyl]-(2,2,2-trifluoro-ethyl)-amine]	0.00064 µM	0.00187 µM	0.013 µM	0.00251 µM
C[C@@H](O)c1nc2cnc3[nH]ccc3c2n1C1CCN(c2cccc(C#N)n2)CC1 [Example 702, 4-[2-((R)-1-Hydroxy-ethyl)-6H-1,2,3,5,6-tetraaza-as-indacen-1-yl]-3,4,5,6-tetrahydro-2H-[1,2]bipyridinyl-6′-carbonitrile]	0.00369 µM	0.0264 µM	0.0406 µM	0.0237 µM
CC(O)c1nc2cnc3[nH]ccc3c2n1C1CC2CCC(C1)N2 (stereo not shown) [Example 919, 1-[1-(8-Aza-bicyclo[3.2.1]oct-3-yl)-1,6-dihydro-1,3,5,6-tetraaza-as-indacen-2-yl]-ethanol]	0.0106 µM	0.437 µM	0.476 µM	0.264 µM
Cc1nc2cnc3[nH]ccc3c2n1C1CCC(NC(=O)CC#N)C1 (racemic) [Example 728, 2-Cyano-N-[3-(2-methyl-6H-1,3,5,6-tetraaza-as-indacen-1-yl)-cyclopentyl]-acetamide]	0.00152 µM	0.00624 µM	0.00226 µM	0.0224 µM
Cc1nc2cnc3[nH]ccc3c2n1C1(C)CCN(Cc2ccnc(C#N)c2)CC1 [Example 758, 4-[4-Methyl-4-(2-methyl-6H-1,3,5,6-tetraaza-as-indacen-1-yl)-piperidin-1-ylmethyl]-pyridine-2-carbonitrile]	0.0408 µM	0.205 µM	0.598 µM	1.01 µM
O=S1(=O)CCCN1CCc1nc2cnc3[nH]ccc3c2n1C1CCCCC1 [Example 922, 1-Cyclohyl-2-[2-(1,1-dioxo-1-isothiazolidin-2-yl)-ethyl]-1,6-dihydro-1,3,5,6-tetraaza-as-indacene]	0.0133 µM	0.0498 µM	0.0516 µM	0.146 µM
CNc1nc2cnc3[nH]ccc3c2n1C1CCN(CCC#N)CC1 [Example 771, 3-[4-(2-Methylamino-6H-1,3,5,6 tetraaza-asindacen-1-yl)-piperidin-1-yl]-propionitrile]	0.00206 µM	0.00662 µM	0.0191 µM	0.0278 µM
FC(F)(F)c1nc2cnc3[nH]ccc3c2n1C1CCN(Cc2ccccc2)CC1 [Example 167, 1-(1-Benzyl-piperidin-4-yl)-2-trifluoromethyl-1,6-dihydro-1,2,3,5,6-tetraaza-as-indacene]	0.0104 µM	0.0141 µM	0.00648 µM	0.82 µM

The next lines start with the values.

Ki (JAK1)	Ki (JAK2)	Ki (JAK3)	Ki (TYK2)	Structure (SMILES)
0.0312 µM	0.127 µM	0.0676 µM	0.944 µM	CC(C)(O)c1nc2cnc3[nH]ccc3c2n1C1CCN(CCC#N)CC1 [Example 335, 3-{4-[2-(1-Hydroxy-1-methyl-ethyl)-6H-1,3,5,6-tetraaza-as-indacen-1-yl]-piperidin-1-yl}-propionitrile]
0.00178 µM	0.00227 µM	0.0135 µM	0.0312 µM	Cc1nc2cnc3[nH]ccc3c2n1C1CCN(Cc2ccccc2)CC1C (racemic) [Example 151, Racemic 1-(1-benzyl-3-methyl-piperidin-4-yl)-2-methyl-1,6-dihydro-1,2,3,5,6-tetraaza-as-indacene dihydrochloride salt]
0.012 µM	0.061 µM	0.0358 µM	0.166 µM	CCn1nccc1CN1CCC(n2c([C@@H](C)O)nc3cnc4[nH]ccc4c32)CC1 [Example 820, (R)-1-{1-[1-(2-Ethyl-2H-pyrazol-3-ylmethyl)-piperidin-4-yl]-1,6-dihydro-1,3,5,6-tetraaza-as-indacen-2-yl}-ethanol]
0.012 µM	0.0449 µM	0.225 µM	0.0882 µM	COC1CNCCC1n1c(C)nc2cnc3[nH]ccc3c21 (racemic) [Example 535, 1-(3-Methoxy-piperidin-4-yl)-2-methyl-1,6-dihydro-1,3,5,6-tetraaza-as-indacene]
0.0662 µM	0.0806 µM	0.0391 µM	0.0286 µM	Cc1nc2cnc3[nH]ccc3c2n1[C@H]1CC[C@@H](C(=O)O)CC1 [Example 420, 4-(2-Methyl-6H-1,3,5,6-tetraaza-as-indacen-1-yl)-cyclohexanecarboxylic acid]
0.00379 µM	0.0448 µM	0.0412 µM	0.0345 µM	CC(O)c1nc2cnc3[nH]ccc3c2n1C1CCN(CC(F)(F)F)CC1 (racemic) [Example 355, 1-{1-[1-(2,2,2-Trifluoro-ethyl)-piperidin-4-yl]-1,6-dihydro-1,3,5,6-tetraaza-as-indacen-2-yl}-ethanol]
0.0701 µM	0.354 µM	0.346 µM	0.176 µM	C[C@@H](O)c1nc2cnc3[nH]ccc3c2n1[C@@H]1CCCOC1 [Example 456, (R)-1-[(R)-1-(Tetrahydro-pyran-3-yl)-1,6-dihydro-1,2,3,5,6-tetraaza-as-indacen-2-yl]-ethanol]
0.0122 µM	0.0354 µM	0.161 µM	0.102 µM	N#Cc1ccc(N2CCC(n3cnc4cnc5[nH]ccc5c43)CC2)nc1 [Example 95, 4-(6H-1,3,5,6-Tetraaza-as-indacen-1-yl)-3,4,5,6-tetrahydro-2H-[1,2′]bipyridinyl-5′-carbonitrile]
0.00174 µM	0.00492 µM	0.033 µM	0.0245 µM	N#CCC(=O)N1CCC(F)C(n2nnc3cnc4[nH]ccc4c32)C1 (racemic) [Example 519, 3-[4-Fluoro-3-(6H-1,2,3,5,6-pentaaza-as-indacen-1-yl)-piperidin-1-yl]-3-oxo-propionitrile]
0.00477 µM	0.0341 µM	0.128 µM	0.303 µM	CCN1CC[C@@H](n2c(CCNS(C)(=O)=O)nc3cnc4[nH]ccc4c32)[C@@H](F)C1 [Example 808, N-{2-[1-((3S,4R)-1-Ethyl-3-fluoro-piperidin-4-yl)-1,6-dihydro-1,3,5,6-tetraaza-as-indacen-2-yl]-ethyl}-methanesulfonamide]
0.002 µM	0.00979 µM	0.0135 µM	0.0489 µM	O=C(CC(F)(F)F)NC1CCC(n2cnc3cnc4[nH]ccc4c32)C1 (racemic) [Example 729, 3,3,3-Trifluoro-N-[3-(6H-1,3,5,6-tetraaza-as-indacen-1-yl)-cyclopentyl]-propionamide]

Source: patent publication US8461328B2, “Tricyclic heterocyclic compounds, compositions and methods of use thereof” (Genentech, Inc., priority 2010, dated 2013)
